Values of other authors, collected in US7560230B2, “Method for determining susceptibility of tumor to treatment with anti-neoplastic agent” (Threshold Pharmaceuticals, Inc., priority 2003, dated 2009).

Tests used:
Conditions in all cases: sodium-dependent transport
[1] = molecular target: T1, SGLT2 (Homo sapiens, UniProt P31639)
T1 sequence (P31639 1-672): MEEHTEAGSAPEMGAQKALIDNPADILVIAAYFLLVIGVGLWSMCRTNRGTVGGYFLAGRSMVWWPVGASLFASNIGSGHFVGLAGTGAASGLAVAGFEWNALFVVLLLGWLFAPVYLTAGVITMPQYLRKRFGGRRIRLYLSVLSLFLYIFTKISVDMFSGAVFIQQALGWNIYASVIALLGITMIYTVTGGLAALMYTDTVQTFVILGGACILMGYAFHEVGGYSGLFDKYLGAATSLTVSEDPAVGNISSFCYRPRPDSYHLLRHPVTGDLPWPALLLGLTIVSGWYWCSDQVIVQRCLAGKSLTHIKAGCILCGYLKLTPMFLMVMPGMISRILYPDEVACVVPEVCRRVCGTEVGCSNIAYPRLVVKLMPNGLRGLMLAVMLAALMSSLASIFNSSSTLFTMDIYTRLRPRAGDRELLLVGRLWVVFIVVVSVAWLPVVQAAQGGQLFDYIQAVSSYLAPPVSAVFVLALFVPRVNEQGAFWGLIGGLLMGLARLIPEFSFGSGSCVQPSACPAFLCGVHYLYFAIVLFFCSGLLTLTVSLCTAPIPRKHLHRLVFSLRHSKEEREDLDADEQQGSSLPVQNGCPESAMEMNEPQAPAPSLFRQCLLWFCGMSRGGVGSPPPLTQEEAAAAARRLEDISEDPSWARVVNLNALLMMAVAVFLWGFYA

[2] = test system: SGLT3
[3] = molecular target: T2, SGLT1 (Homo sapiens, UniProt P13866)
T2 sequence (P13866 1-664): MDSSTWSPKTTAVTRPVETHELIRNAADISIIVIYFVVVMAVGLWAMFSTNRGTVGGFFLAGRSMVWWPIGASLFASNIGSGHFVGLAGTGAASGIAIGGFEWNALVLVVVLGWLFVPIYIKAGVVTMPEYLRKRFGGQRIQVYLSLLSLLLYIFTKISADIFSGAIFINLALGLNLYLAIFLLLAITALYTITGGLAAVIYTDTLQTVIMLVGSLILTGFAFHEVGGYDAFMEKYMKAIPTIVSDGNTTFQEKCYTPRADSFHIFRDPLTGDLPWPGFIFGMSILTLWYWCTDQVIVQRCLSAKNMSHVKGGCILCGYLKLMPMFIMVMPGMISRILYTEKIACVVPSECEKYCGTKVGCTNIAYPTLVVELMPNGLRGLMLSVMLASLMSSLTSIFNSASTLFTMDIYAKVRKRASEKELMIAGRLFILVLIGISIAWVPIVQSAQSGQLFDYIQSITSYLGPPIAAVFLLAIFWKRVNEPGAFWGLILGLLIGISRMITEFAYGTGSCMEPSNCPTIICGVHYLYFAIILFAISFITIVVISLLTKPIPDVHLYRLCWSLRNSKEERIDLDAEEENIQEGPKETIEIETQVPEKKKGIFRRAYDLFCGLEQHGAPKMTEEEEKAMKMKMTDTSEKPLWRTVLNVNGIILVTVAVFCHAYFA

apparent affinity (K0.5) [1]: 2 mM | apparent affinity (K0.5) [3]: 0.4 mM
SMILES: CO[C@H]1O[C@H](CO)[C@@H](O)[C@H](O)[C@H]1O [a-MDG, a-methyl-D-glucoside]
apparent affinity (K0.5) [2]: 2 mM
